The values below are quoted from earlier work in article PMC10655862 (Methods in enzymology, 2023).

As usually defined, the Km is the concentration of substrate that gives half-maximal velocity. One may read the Kd as a measure of binding affinity in units of concentration.

The test system of series [1] is AKR1D1. The following applies: 5β-reduction, fluorometric, pH 6.0, 37 °C; ref Chen et al., (2011).
The test system of series [2] is AKR1D1 (5β-reductase). Particulars: ref Chen et al., (2011); for Type of inhibition (5β-reductase): inhibition of testosterone reduction; for inhibition of AKR1D1, in words: reduction of [4-14C]-testosterone.
Series [3] addresses AKR1C2. The following applies: AKR1C2, competitive inhibition (C); ref Bauman et al. (2005).
The target in series [4] is AKR1C3. Particulars: AKR1C3, competitive inhibition (C); ref Bauman et al. (2005).
The target in series [5] is AKR1C1. The following applies: AKR1C1, competitive inhibition (C); ref Bauman et al. (2005).
In series [6] the target is aldose reductase AKR1B1. Particulars: NADPH binding to AKR1B1, literature comparison; ref not given.
Series [7] has as its target 5α-reductase type 2 (SRD5A2). The following applies: ref Bull et al. (1996).

Like-named read-outs stand apart in the source and are kept apart here.

In the case of `C[C@]12CCC(=O)C=C1CC[C@@H]1[C@@H]2CC[C@]2(C)C(=O)CC[C@@H]12` [Δ^4-Androstene-3,17-dione], in series [1], the Km was 0.9 ± 0.2 µM. `C[C@]12C[C@H](O)[C@H]3[C@@H](CCC4=CC(=O)CC[C@@]43C)[C@@H]1CC[C@@H]2C(=O)CO` [Corticosterone]: the Michaelis-Menten constant (Km) in series [1] is 2.2 ± 0.5 µM. `C[C@]12CC[C@H]3[C@@H](CCC4=CC(=O)CC[C@@]43C)[C@@H]1CC[C@H]2O` [Epitestosterone]: the Michaelis constant (Km) in series [1] is 2.9 ± 0.6 µM. For `C[C@]12CCC(=O)C=C1CC[C@@H]1[C@@H]2C(=O)C[C@@]2(C)[C@H]1CC[C@]2(O)C(=O)CO` [Cortisone], the Michaelis constant (Km) in series [1] is 15.1 ± 0.3 µM. In the case of `C[C@]12CCC(=O)C=C1CC[C@@H]1[C@@H]2[C@@H](O)C[C@@]2(C)[C@H]1CC[C@]2(O)C(=O)CO` [Cortisol], the Km in series [1] was 13.1 ± 1.8 µM.

For the molecule `O=C(O)c1ccc(C(=O)c2ccccc2)cc1` [4-Benzoylbenzoic acid], the “Type of inhibition (5β-reductase)” value in series [2] is given as “n.i”. Besides, in series [2], the “inhibition of AKR1D1, in words” value was “ineffective”. Also, the Ki is 13300 nM in series [3], 1900 nM in series [4] and 12500 nM in series [5]. Turning to `NC(=O)C1=CN([C@@H]2O[C@H](COP(=O)(O)OP(=O)(O)OC[C@H]3O[C@@H](n4cnc5c(N)ncnc54)[C@H](OP(=O)(O)O)[C@@H]3O)[C@@H](O)[C@H]2O)C=CC1` [NADPH], the dissociation constant Kd in series [6] was 9 nM. As to `CC(C)(C)NC(=O)[C@H]1CC[C@H]2[C@@H]3CC[C@H]4NC(=O)C=C[C@]4(C)[C@H]3CC[C@]12C` [Finasteride], the “inhibition of AKR1D1, in words” value in series [2] is recorded as “competitive inhibitor”. Besides, the Ki in series [7] (competitive inhibition (C)) was 26 nM; in series [7] (mechanism-based inhibition (MBI)), below 1 nM. For the molecule `CC(C)CCC[C@@H](C)[C@H]1CC[C@H]2[C@@H]3[C@H](O)CC4=CC(=O)CC[C@]4(C)[C@H]3CC[C@]12C` [4-Cholesten-7α-ol-3-one], the Km in series [1] is 0.8 ± 0.2 µM. In the case of `C[C@]12CC[C@H]3[C@@H](CCC4=CC(=O)CC[C@@]43C)[C@@H]1CC[C@@H]2O` [Testosterone], the Km in series [1] is 2.7 ± 1.2 µM. On to `COc1ccc2c(c1)c(CC(=O)O)c(C)n2C(=O)c1ccc(Cl)cc1` [Indomethacin], for which, in series [2], the “Type of inhibition (5β-reductase)” value is listed as “n.i” and the “inhibition of AKR1D1, in words” value was “ineffective”. On to `C[C@H](CCC(=O)O)[C@H]1CC[C@H]2[C@@H]3[C@@H](O)C[C@@H]4C[C@H](O)CC[C@]4(C)[C@H]3CC[C@]12C` [Ursodeoxycholic acid], for which the “inhibition of AKR1D1, in words” value in series [2] is “weak non-competitive inhibitors”. Also, the Ki was 11 nM in series [3], 1300 nM in series [4] and 4900 nM in series [5]. For `Cc1cccc(Nc2ccccc2C(=O)O)c1C` [Mefenamic acid], in series [2], the “Type of inhibition (5β-reductase)” value is “n.i” and the “inhibition of AKR1D1, in words” value was “ineffective”. Also, the Ki in series [5] is 800 nM. Regarding `C[C@H](CCC(=O)O)[C@H]1CC[C@H]2[C@@H]3[C@H](O)C[C@@H]4C[C@H](O)CC[C@]4(C)[C@H]3CC[C@]12C` [Chenodeoxycholic acid], in series [2], the “inhibition of AKR1D1, in words” value is on record as “weak non-competitive inhibitors”. Further, the Ki in series [3] was 17 nM; in series [4], 10000 nM; in series [5] it was 8300 nM. For the molecule `CC(C)CCC[C@@H](C)[C@H]1CC[C@H]2[C@@H]3CCC4=CC(=O)CC[C@]4(C)[C@H]3CC[C@]12C` [Cholestenone], the Km in series [1] was 0.3 ± 0.1 µM.

In the case of `C[C@]12CC[C@H]3[C@@H](CCC4=CC(=O)CC[C@@H]43)[C@@H]1CC[C@@H]2O` [4-Estren-l7β-ol-3-one], the Km in series [1] was 3 ± 0.5 µM.

With `C[C@]12CC[C@H]3[C@@H](CCC4=CC(=O)C=C[C@@]43C)[C@@H]1CC[C@@H]2O` [1,4-Androstadien-17β-ol-3-one], the Km in series [1] was 3.2 ± 0.2 µM.
